Data taken from patent publication US6482921B1, “Uridyl peptide antibiotic (UPA) derivatives, their synthesis and use” (Essential Therapeutics, Inc., priority 1999, dated 2002).
≈ marks a conversion by molar mass, not a printed value.

What was measured:
Type in all cases: cell-based
[1] = test system: Escherichia Coli MC 4100; test: MIC broth microdilution, E. coli MC 4100 (wild type); settings: E. coli MC 4100
[2] = test system: Pseudomonas aeruginosa PAM 1020; test: MIC broth microdilution, P. aeruginosa PAM 1020 (wild type); settings: P. aeruginosa PAM 1020
[3] = test system: Staphylococcus aureus 8325-4; test: MIC broth microdilution, S. aureus 8325-4 (wild type); settings: S. aureus 8325-4
[4] = test system: Escherichia Coli MC 4100 AcrAB; test: MIC broth microdilution, E. coli MC 4100 AcrAB (ΔAcrAB); settings: E. coli AcrAB
[5] = test system: Pseudomonas aeruginosa PAM 1323; test: MIC broth microdilution, P. aeruginosa PAM 1323 (medium level UPA resistance)
[6] = test system: Pasteurella multocida pm002; test: MIC broth microdilution, P. multocida pm002 (wild type)
[7] = test system: Pseudomonas aeruginosa PAM 1154; test: MIC broth microdilution, P. aeruginosa PAM 1154 (OprM::Hg); settings: P. aeruginosa PAM 1154 OprM::Hg
[8] = test system: Pseudomonas aeruginosa PAM 1135; test: MIC broth microdilution, P. aeruginosa PAM 1135 (high level UPA resistance); settings: P. aeruginosa PAM 1135 UPA1^r
[9] = test system: Escherichia Coli MC 4100 AcrAB UPA3r; test: MIC broth microdilution, E. coli MC 4100 AcrAB UPA3r (ΔAcrAB, UPA resistant); settings: E. coli AcrAB UPA3^r
[10] = test system: Staphylococcus aureus ATCC 29213; test: MIC broth microdilution, S. aureus ATCC 29213 (wild type); settings: S. aureus ATCC 29213

SMILES	MIC (μg/ml) Broth microdilution [1] [µg/mL]	MIC (μg/ml) Broth microdilution [2] [µg/mL]	MIC (μg/ml) Broth microdilution [3] [µg/mL]	MIC (μg/ml) Broth microdilution [4] [µg/mL]	MIC (μg/ml) Broth microdilution [5] [µg/mL]	MIC (μg/ml) Broth microdilution [6] [µg/mL]	MIC (μg/ml) Broth microdilution [7] [µg/mL]	MIC (μg/ml) Broth microdilution [8] [µg/mL]	MIC (μg/ml) Broth microdilution [9] [µg/mL]	MIC (μg/ml) Broth microdilution [10] [µg/mL]
CC(N)C(=O)N(C)C(C)C(NC(=O)C(CCc1ccccc1)NC(=O)NC(Cc1ccc(O)cc1)C(=O)O)C(=O)NCC1CC(O)C(n2ccc(=O)[nH]c2=O)O1 [Compound 137, 1-[5′-[(2S,3S)-N^3-L-Alanyl-N^2-[N-[[(1S)-1-carboxy-4-hydroxyphenethyl]carbamoyl]-L-homophenylalanyl]-N^3-methyl-2,3-diaminobutyramido]-3′,5′-dideoxy-α-L-arabinofuranosyl]uracil]	512 (≈ 656 µM)	64 (≈ 82 µM)	>512	16 (≈ 20.5 µM)	>512	>512	128 (≈ 164 µM)	>512	256 (≈ 328 µM)	>512
CC(N)C(=O)N(C)C(C)C(NC(=O)C(CCc1ccccc1)NC(=O)NC(Cc1c[nH]c2ccccc12)C(=O)O)C(=O)NCC1CC(O)C(n2ccc(=O)[nH]c2=O)O1 [Compound 138, 1-[5′-[(2S,3S)-N^3-L-Alanyl-N^2-[N-[[(1S)-1-carboxy-2-indol-3-ylethyl]carbamoyl]-L-homophenylalanyl]-N^3-methyl-2,3-diaminobutyramido]-3′,5′-dideoxy-α-L-arabinofuranosyl]uracil]	512 (≈ 637 µM)	32 (≈ 39.8 µM)	>512	2 (≈ 2.49 µM)	>512	>512	8 (≈ 9.95 µM)	>512	256 (≈ 318 µM)	>512
C[C@H](N)C(=O)N(C)[C@@H](C)[C@H](NC(=O)[C@H](Cc1ccccc1F)NC(=O)N[C@@H](Cc1c[nH]c2ccccc12)C(=O)O)C(=O)NC[C@H]1C[C@@H](O)[C@H](n2ccc(=O)[nH]c2=O)O1 [Compound 139, 1-[5′-[(2S,3S)-N^3-L-Alanyl-N^2-[N-[[(1S)-1-carboxy-2-indol-3-ylethyl]carbamoyl]-L-2-fluorophenylalanyl]-N^3-methyl-2,3-diaminobutyramido]-3′,5′-dideoxy-α-L-arabinofuranosyl]uracil]	>512	64 (≈ 79.2 µM)	256 (≈ 317 µM)	2 (≈ 2.48 µM)	512 (≈ 634 µM)	256 (≈ 317 µM)	8 (≈ 9.9 µM)	>512	64 (≈ 79.2 µM)	256 (≈ 317 µM)
C[C@H](N)C(=O)N(C)[C@@H](C)[C@H](NC(=O)[C@H](Cc1ccccc1F)NC(=O)N[C@@H](Cc1ccc(O)cc1)C(=O)O)C(=O)NC[C@H]1C[C@@H](O)[C@H](n2ccc(=O)[nH]c2=O)O1 [Compound 140, 1-[5′-[(2S,3S)-N^3-L-Alanyl-N^2-[N-[[(1S)-1-carboxy-4-hydroxyphenethyl]carbamoyl]-L-2-fluorophenylalanyl]-N^3-methyl-2,3-diaminobutyramido]-3′,5′-dideoxy-α-L-arabinofuranosyl]uracil]	64 (≈ 81.5 µM)	64 (≈ 81.5 µM)	512 (≈ 652 µM)	<1	512 (≈ 652 µM)	>512	4 (≈ 5.1 µM)	>512	8 (≈ 10.2 µM)	512 (≈ 652 µM)
C[C@H](N)C(=O)N(C)[C@@H](C)[C@H](NC(=O)[C@H](Cc1ccc(F)c(F)c1)NC(=O)N[C@@H](Cc1c[nH]c2ccccc12)C(=O)O)C(=O)NC[C@H]1C[C@@H](O)[C@H](n2ccc(=O)[nH]c2=O)O1 [Compound 143, 1-[5′-[(2S,3S)-N^3-L-Alanyl-N^2-[N-[[(1S)-1-carboxy-2-indol-3-ylethyl]carbamoyl]-L-(3,4)-difluorophenylalanyl]-N^3-methyl-2,3-diaminobutyramido]-3′,5′-dideoxy-α-L-arabinofuranosyl]uracil]	256 (≈ 310 µM)	128 (≈ 155 µM)	256 (≈ 310 µM)	<1	>512	128 (≈ 155 µM)	16 (≈ 19.4 µM)	>512	16 (≈ 19.4 µM)	512 (≈ 620 µM)
C[C@H](N)C(=O)N(C)[C@@H](C)[C@H](NC(=O)[C@H](Cc1ccc(F)c(F)c1)NC(=O)N[C@@H](Cc1ccc(O)cc1)C(=O)O)C(=O)NC[C@H]1C[C@@H](O)[C@H](n2ccc(=O)[nH]c2=O)O1 [Compound 144, 1-[5′-[(2S,3S)-N^3-L-Alanyl-N^2-[N-[[(1S)-1-carboxy-4-hydroxyphenethyl]carbamoyl]-L-(3,4)-difluorophenylalanyl]-N^3-methyl-2,3-diaminobutyramido)-3′,5′-dideoxy-α-L-arabinofuranosyl]uracil]	4 (≈ 4.98 µM)	64 (≈ 79.7 µM)	512 (≈ 638 µM)	<1	>512	256 (≈ 319 µM)	8 (≈ 9.97 µM)	>512	<1	>512
C[C@H](N)C(=O)N(C)[C@@H](C)[C@H](NC(=O)[C@H](Cc1ccc(C(F)(F)F)cc1)NC(=O)N[C@@H](Cc1ccc(O)cc1)C(=O)O)C(=O)NC[C@H]1C[C@@H](O)[C@H](n2ccc(=O)[nH]c2=O)O1 [Compound 145, 1-[5′-[(2S,3S)-N^3-L-Alanyl-N^2-[N-[[(1S)-1-carboxy-4-hydroxyphenethyl]carbamoyl]-L-4-(trifluoromethyl)phenylalanyl]-N^3-methyl-2,3-diaminobutyramido]-3′,5′-dideoxy-α-L-arabinofuranosyl]uracil]	512 (≈ 613 µM)	256 (≈ 307 µM)	>512	4 (≈ 4.79 µM)	>512	512 (≈ 613 µM)	32 (≈ 38.3 µM)	>512	128 (≈ 153 µM)	>512
CC(N)C(=O)N(C)C(C)C(NC(=O)C(CCCCN)NC(=O)NC(Cc1c[nH]c2ccccc12)C(=O)O)C(=O)NCC1CC(O)C(n2ccc(=O)[nH]c2=O)O1 [Compound 148, 1-[5′-[(2S,3S)-N^3-L-Alanyl-N^2-[N-[[(1S)-1-carboxy-2-indol-3-ylethyl]carbamoyl]-L-lysinyl]-N^3-methyl-2,3-diaminobutyramido]-3′,5′-dideoxy-α-L-arabinofuranosyl]uracil]	>512	128 (≈ 166 µM)	>512	>512	>512	>512	8 (≈ 10.4 µM)	>512	>512	>512
C[C@H](N)C(=O)N(C)[C@@H](C)[C@H](NC(=O)[C@H](Cc1ccccc1)NC(=O)N[C@@H](Cc1c[nH]cn1)C(=O)O)C(=O)NC[C@H]1C[C@@H](O)[C@H](n2ccc(=O)[nH]c2=O)O1 [Compound 149]	512 (≈ 691 µM)	512 (≈ 691 µM)	>512	16 (≈ 21.6 µM)	>512	256 (≈ 346 µM)	8 (≈ 10.8 µM)	>512	64 (≈ 86.4 µM)	>512
C[C@@H]([C@H](NC(=O)[C@H](Cc1ccccc1)NC(=O)N[C@@H](Cc1ccc(O)cc1)C(=O)O)C(=O)NC[C@H]1C[C@@H](O)[C@H](n2ccc(=O)[nH]c2=O)O1)N(C)C(=O)[C@@H](N)COCc1ccccc1 [Compound 150, 1-[5′-[(2S,3S)-N^3-(L-O-Benzylserinyl)-N^2-[N-[[(1S)-1-carboxy-4-hydroxyphenethyl]carbamoyl]-L-phenylalanyl]-N^3-methyl-2,3-diaminobutyramido]-3′,5′-dideoxy-α-L-arabinofuranosyl]uracil]	512 (≈ 587 µM)	256 (≈ 293 µM)	>512	8 (≈ 9.16 µM)	256 (≈ 293 µM)	512 (≈ 587 µM)	64 (≈ 73.3 µM)	256 (≈ 293 µM)	512 (≈ 587 µM)	>512
